Patent publication US11766447B2, “3′3′-cyclic dinucleotide analogue comprising a cyclopentanyl modified nucleotide as sting modulator” (INSTITUTE OF ORGANIC CHEMISTRY AND BIOCHEMISTRY ASCR, V.V.I., priority 2019, dated 2023)
Read-outs that look alike come from different tables or passages of the source.

How the values were obtained:
WT STING [1] = biological target: T1, WT STING (Homo sapiens, UniProt Q86WV6, H232R); experiment: 293T WT STING standard reporter assay; format: cell-based; design: host or cells: 293T (ATCC CRL-3216), stably transfected, with 4xISRE firefly luciferase reporter; details: 293T wtSTING-FL cells, ISRE firefly luciferase; no digitonin; 7 hours with compounds; 8-point curve
From the text: Two complementary oligonucleotides of the sequence […] […] […] […] […] The oligonucleotides were mixed in equal molar amounts, hybridized, and cleaved by restriction endonucleases HindIII (cat. #. R0104S, NEB, Ipswich, USA) and BglII (cat. #R0144S, NEB, Ipswich, USA). Ultimately, they were ligated into plasmid pGL4.27 (cat. #E6651, Promega, Madison, USA) linearized with the same enzymes. As result the sequence with four ISRE sites was placed upstream of the minimum promoter of firefly luciferase reporter gene.
After 5 minutes incubation at room temperature (RT), 250 μL of the mixture was added dropwise to the cells in one well. Cells were incubated 36 hours at 37° C. with 5% CO2, and then detached with 0.05% Trypsin and 0.22 g/L EDTA (both cat. #L0941, Biowest, Riverside, USA).
Transfected cells were seeded onto poly-D-lysine coated six well plates at density 50,000 cells per 1 cm^2 in DMEM medium with high glucose containing 10% heat inactivated FBS, 30 μg/mL blasticidin (cat. #ant-b1-05, InvivoGen, San Diego, USA), 0.06 mg/ml Penicillin G and 0.1 mg/ml Streptomycin Sulfate (both cat. #. L0018, Biowest, Riverside, USA). The medium was replenished every 3-4 days until visible colonies of cells resistant to blasticidin were formed.
Blasticidin resistant cells stably expressing WT STING were further transfected with […] plasmid following the same procedure as described above. […] Homogeneous culture of stably double transfected cells was prepared by limiting dilution of cells in 96 well plates and wells with cells were selected that originated from a single cell.
The medium was removed next day and three-fold serial dilutions of compounds in 100 μl medium were added to the cells. The plates with cells were incubated for 7 hours at 37° C. with 5% CO2. After 50 μl of the medium was removed, 30 μl of ONE-Glo™ Luciferase Assay System reagent (cat. #E6120, Promega, Madison, USA) was added to each well and luminescence was read on Synergy H1 (Biotek, Winooski, USA).
Target sequence in this assay (Q86WV6 whole entry H232R): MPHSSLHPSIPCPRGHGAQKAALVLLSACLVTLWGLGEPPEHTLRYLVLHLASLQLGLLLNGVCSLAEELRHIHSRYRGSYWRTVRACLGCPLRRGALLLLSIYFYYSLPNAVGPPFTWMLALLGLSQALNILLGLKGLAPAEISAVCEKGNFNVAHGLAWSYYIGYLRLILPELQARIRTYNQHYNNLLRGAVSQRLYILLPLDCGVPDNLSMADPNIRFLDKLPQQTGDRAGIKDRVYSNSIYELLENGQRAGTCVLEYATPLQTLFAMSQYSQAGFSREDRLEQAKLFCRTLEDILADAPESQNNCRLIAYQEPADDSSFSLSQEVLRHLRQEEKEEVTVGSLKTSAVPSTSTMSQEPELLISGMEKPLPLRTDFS

AQ STING (G230A-R293Q) = biological target: T2, AQ STING (G230A-R293Q) (Homo sapiens, UniProt Q86WV6, G230A/H232R/R293Q); experiment: Differential scanning fluorimetry (DSF) with AQ STING; format: binding; details: thermal shift vs apoprotein; 150 μM CDN; truncated human AQ STING 0.1 mg/ml
T2 construct: 8xHis (N, cleaved yes); SUMO (N, cleaved yes); made in house; host or cells: E. coli Rosetta-gami B (DE3)
T2 sequence (Q86WV6 140-343 G230A/H232R/R293Q): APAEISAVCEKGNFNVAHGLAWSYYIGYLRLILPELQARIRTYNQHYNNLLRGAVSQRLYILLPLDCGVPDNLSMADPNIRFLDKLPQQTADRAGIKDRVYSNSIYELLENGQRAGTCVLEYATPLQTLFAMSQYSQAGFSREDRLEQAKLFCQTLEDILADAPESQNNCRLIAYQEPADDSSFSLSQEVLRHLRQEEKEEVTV
In short: (§1)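 […] STING proteins, alone or with CDNs, in triplicate, thermally denatured on a real-time PCR cycler. Denaturing temperatures taken from first-derivative curves; shift = mean Tm of STING–CDN complex minus mean Tm of apoprotein.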

WT STING [2] = biological target: T1, WT STING; experiment: Differential scanning fluorimetry (DSF) with WT STING; format: binding; design: 8xHis (N, cleaved yes); SUMO (N, cleaved yes); made in house; host or cells: E. coli Rosetta-gami B (DE3); details: thermal shift vs apoprotein; 150 μM CDN; truncated human WT STING 0.1 mg/ml
In short: as §1
Target sequence in this assay (Q86WV6 140-343 H232R): as the sequence (Q86WV6 140-343 G230A/H232R/R293Q) above, with A91G, Q154R counted along it

WT STING [3] = biological target: T1, WT STING; experiment: Digitonin assay using 293T wtSTING-FL reporter cells; format: cell-based; design: host or cells: 293T (ATCC CRL-3216), stably transfected, with 4xISRE firefly luciferase reporter; details: 293T wtSTING-FL cells, ISRE firefly luciferase; compounds in Digitonin buffer 30 minutes, then 5 hours; 8-point curve
Target sequence in this assay (Q86WV6 whole entry H232R): as the sequence (Q86WV6 whole entry H232R) above

[4] = system: peripheral blood mononuclear cells (PBMC); experiment: Peripheral blood mononuclear cell (PBMC) assay; format: cell-based; details: PBMC, 1 h with compounds, washed, 15 hour incubation, average of one to four donors
In short: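 PBMCs exposed to serially diluted compound for 1 h at 37° C, 5% CO2, then washed twice and cultured 15 h in compound-free medium. IFN-α, IFN-γ and TNF-α measured in collected medium by multiplex bead immunoassay. Values averaged over runs from one to four donors.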

[5] = interferon-alpha level, read-out: PBMC EC50 (μM) IFN-α
[6] = interferon-gamma level, read-out: PBMC EC50 (μM) IFN-γ
[7] = tumor necrosis factor-alpha level, read-out: PBMC EC50 (μM) TNF-α

Compound | EC50 (WT STING [1]) | ΔTm at 150 µM (AQ STING (G230A-R293Q)) | ΔTm at 150 µM (WT STING [2]) | EC50 (WT STING [3]) | EC50 [4, 5] | EC50 [4, 6] | EC50 [4, 7] | DSF ΔTm (° C.) AQ STING (AQ STING (G230A-R293Q)) | DSF ΔTm (° C.) WT STING (WT STING [2])
Nc1ncnc2c1ncn2[C@@H]1C[C@@H]2COP(=O)(O)OC3C(F)[C@H](n4cnc5c(N)ncnc54)O[C@@H]3COP(=O)(O)OC2C1F (stereo partly drawn) [Compound 120, (2R,3R,3aR,7aR,9R,10S,10aR,14aR)-2,9-bis(6-amino-9H-purin-9-yl)-3,10-difluoro-5,12-dihydroxydecahydro-2H-cyclopenta[d]furo[3,2-j][1,3,7,9]tetraoxa[2,8]diphosphacyclododecine 5,12-dioxide] | 1.9 µM | 17 °C | 10.3 °C | 0.01 µM | 64 µM | 36.6 µM | 72.6 µM |  | 
Nc1ncnc2c1ncn2[C@@H]1C[C@@H]2COP(=O)(O)OC3C(F)[C@H](n4cnc5c(N)ncnc54)C[C@@H]3COP(=O)(O)OC2C1F (stereo partly drawn) [Compound 121, (2R,3S,3aR,7aR,9R,10S,10aR,14aR)-2,9-bis(6-amino-9H-purin-9-yl)-3,10-difluoro-5,12-dihydroxydodecahydrodicyclopenta[d,j][1,3,7,9]tetraoxa[2,8]-diphosphacyclododecine 5,12-dioxide] | 2.6 µM | 13.9 °C | 7.6 °C | 0.05 µM | 254 µM | 200 µM | 254 µM |  | 
Nc1ncnc2c1ncn2[C@@H]1C[C@@H]2COP(=O)(S)O[C@@H]3[C@@H](COP(=O)(S)O[C@H]2[C@H]1F)C[C@@H](n1cnc2c(N)ncnc21)[C@@H]3F (single isomer, unassigned) [Compound 128b] | 0.4 µM |  |  | 0.01 µM | 27 µM | 6.5 µM | 19 µM | 17.5 °C | 12.2 °C
Nc1ncnc2c1ncn2[C@@H]1C[C@@H]2COP(=O)(O)OC3C[C@H](n4cnc5c(N)ncnc54)O[C@@H]3COP(=O)(O)OC2C1F (stereo partly drawn) [Compound 124, (2R,3aS,7aR,9R,10S,10aR,14aR)-2,9-bis(6-amino-9H-purin-9-yl)-10-fluoro-5,12-dihydroxydecahydro-2H-cyclopenta[d]furo[3,2-j][1,3,7,9]tetraoxa[2,8]diphosphacyclododecine 5,12-dioxide] | 4.9 µM | 12.8 °C | 6.2 °C | 0.05 µM | 290 µM | 43 µM | 223 µM |  | 
Nc1nc2c(ncn2[C@@H]2C[C@@H]3COP(=O)(S)O[C@H]4[C@@H](F)[C@H](n5cnc6c(N)ncnc65)O[C@@H]4COP(=O)(S)O[C@H]3C2)c(=O)[nH]1 (single isomer, unassigned) [Compound 129d] | 0.3 µM |  |  | 0.007 µM | 27 µM | 23 µM | 25 µM | 20.8 °C | 13.7 °C
Nc1ncnc2c1ncn2[C@H]1CC2OP(=O)(O)OC[C@H]3O[C@@H](n4cnc5c(N)ncnc54)C(F)C3OP(=O)(O)OC[C@H]2C1 (stereo partly drawn) [Compound 119, (2R, 3R, 3aR, 7aR, 9R, 10aS, 14aR)-2,9-bis(6-amino-9H-purin-9-yl)-3-fluoro-5,12-dihydroxydecahydro-2H-cyclopeanta[d]furo[3,2-j][1,3,7,9]tetraoxa[2,8]diphosphacyclododecine 5,12-dioxide] | 11.7 µM | 16.6 °C | 5.7 °C | 0.05 µM | 265 µM | 169 µM | 146 µM |  | 
Nc1nc2c(ncn2[C@@H]2O[C@@H]3COP(=O)(O)O[C@@H]4[C@H](O)[C@@H](COP(=O)(O)O[C@@H]2[C@@H]3O)O[C@H]4n2cnc3c(N)ncnc32)c(=O)[nH]1 [2′2′-cGAMP, reference compound] | 10.2 µM |  |  | 0.03 µM |  |  |  | 19.4 °C | 11.5 °C
